The target of experiment [1] is T1, SHP2 (Homo sapiens, UniProt Q06124).
T1 sequence (Q06124 1-593): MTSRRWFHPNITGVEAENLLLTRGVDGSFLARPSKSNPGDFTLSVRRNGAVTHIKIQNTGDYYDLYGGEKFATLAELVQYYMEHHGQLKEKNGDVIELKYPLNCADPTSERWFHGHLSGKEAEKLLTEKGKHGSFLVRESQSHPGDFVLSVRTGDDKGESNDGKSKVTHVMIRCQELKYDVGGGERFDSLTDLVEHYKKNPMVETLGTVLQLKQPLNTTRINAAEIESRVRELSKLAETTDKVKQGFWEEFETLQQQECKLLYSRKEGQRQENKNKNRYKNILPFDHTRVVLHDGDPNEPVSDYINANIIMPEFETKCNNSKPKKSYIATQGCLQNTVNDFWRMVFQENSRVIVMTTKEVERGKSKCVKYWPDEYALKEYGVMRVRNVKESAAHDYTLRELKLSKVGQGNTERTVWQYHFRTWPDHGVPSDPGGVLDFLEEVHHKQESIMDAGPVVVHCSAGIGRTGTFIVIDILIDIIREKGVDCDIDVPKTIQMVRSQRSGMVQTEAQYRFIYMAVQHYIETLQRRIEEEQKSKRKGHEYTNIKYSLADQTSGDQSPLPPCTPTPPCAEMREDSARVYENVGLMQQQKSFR
In words: biochemical. The settings on record: read-out: SHP2 inhibition (%)@0.1 μM.

In experiment [2] the target is T1, SHP2. In words: Phosphatase assays (IC50), DiFMUP substrate.
Experiment [3] relates to MV-4-11. In words: Cell proliferation assay (MTS/PMS). It is filed as cell-based. The settings on record: Homo sapiens, MV4-11; MV-4-11 cell proliferation, MTS/PMS readout at day 8, compounds added 24 hours after plating; read-out: IC50.

Read-outs that look alike come from different tables or passages of the source.

By inhibition is commonly meant the relative decrease from the control value, in per cent. The IC50 is the midpoint of a concentration-inhibition curve. Take `Nc1nc(N2CCC3(CC2)c2ccccc2C[C@H]3N)cnc1Sc1ccnc(N)c1Cl` [Example 1, (R)-1′-(6-amino-5-((2-amino-3-chloropyridin-4-yl)thio)pyrazin-2-yl)-2,3-dihydrospiro[indene-1,4′-piperidin]-2-amine]: the inhibition at 0.1 µM in experiment [1] is 87%. Besides, half-maximal inhibition in experiment [2] (SHP2 0.5 nM activated with dPEG8 peptide, DiFMUP 12 μM, 30 min) (IC50) was put at 8 nM.

Regarding `CC(=O)N1CC(F)(F)c2c(Sc3ncc(N4CCC5(CC4)CC4CC4[C@H]5N)nc3N)cccc21` (stereo partly drawn) [Example 7, 1-(4-((3-amino-5-((2R)-2-aminospiro [bicyclo[3.1.0]hexane-3,4′-piperidin]-1′-yl)pyrazin-2-yl)thio)-3,3-difluoro-indolin-1-yl)ethan-1-one], the inhibition at 0.1 µM in experiment [1] was determined as 81%. For the same compound, in experiment [2], 22 nM corresponded to half-maximal inhibition (IC50).

On to `Nc1nc(N2CCC3(CC2)Cc2ncccc2[C@H]3N)cnc1Sc1ccnc(N)c1Cl` [Example 10, (S)-1′-(6-amino-5-((2-amino-3-chloropyridin-4-yl)thio)pyrazin-2-yl)-5,7-dihydrospiro [cyclopenta[b]pyridine-6,4′-piperidin]-5-amine], for which the IC50 was determined as 4 nM in experiment [3] and 7 nM in experiment [2].

For `Nc1nc(N2CCC3(CC2)Cc2nc(Cl)ccc2[C@H]3N)cnc1Sc1ccnc(N)c1Cl` [Example 19, (S)-1′-(6-amino-5-((2-amino-3-chloropyridin-4-yl)thio)pyrazin-2-yl)-2-chloro-5,7-dihydrospiro[cyclopenta [b]pyridine-6,4′-piperidin]-5-amine], the inhibition at 0.1 µM in experiment [1] turned out to be 86%. Moreover, the IC50 in experiment [2] was found to be 7 nM.

In the case of `Nc1nc(N2CCC3(CC2)CC2CC2[C@H]3N)cnc1Sc1ccnc(N)c1Cl` (stereo partly drawn) [Example 81, (2R)-1′-(6-amino-5-((2-amino-3-chloropyridin-4-yl)thio)pyrazin-2-yl)spiro [bicyclo[3.1.0]hexane-3,4′-piperidin]-2-amine], the inhibition at 0.1 µM in experiment [1] stood at 75%. Besides, in experiment [2], inhibition was half-maximal at 8 nM (IC50).

`Nc1nc(N2CCC3(CC2)Cc2ncccc2[C@H]3N)cnc1Sc1cccc(Cl)c1Cl` [Example 84, (S)-1′-(6-amino-5-((2,3-dichloro-phenyl)thio)pyrazin-2-yl)-5,7-dihydrospiro[cyclopenta [b]pyridine-6, 4′-piperidin]-5-amine] displayed an IC50 in experiment [2] of 3 nM.

Take `CN(C)c1nccc(Sc2cnc(N3CCC4(CC3)Cc3ncccc3[C@H]4N)cn2)c1Cl` [Example 85, (S)-1′-(5-((3-chloro-2-(dimethyl-amino)pyridin-4-yl)thio)pyrazin-2-yl)-5,7-dihydrospiro [cyclopenta [b]pyridine-6,4′-piperidin]-5-amine]: it took 6 nM to reach half-maximal inhibition in experiment [2] (IC50).

Consider `N[C@@H]1c2cccnc2CC12CCN(c1cnc(Sc3ccncc3)cn1)CC2` [Example 86, (S)-1′-(5-(pyridin-4-ylthio)pyrazin-2-yl)-5,7-dihydrospiro [cyclopenta [b]pyridine-6,4′-piperidin]-5-amine], for which inhibition in experiment [2] was half-maximal at 14 nM (IC50).

Regarding `Nc1nc(N2CCC3(CC2)Cc2ncccc2[C@H]3N)cnc1Sc1ccncc1F` [Example 87, (S)-1′-(6-amino-5-((3-fluoropyridin-4-yl)thio)pyrazin-2-yl)-5,7-dihydrospiro[cyclopenta [b]pyridine-6,4′-piperidin]-5-amine], the IC50 in experiment [2] is 9 nM.

With `Nc1nc(N2CCC3(CC2)Cc2scnc2[C@H]3N)cnc1Sc1ccncc1F` [Example 88, (S)-1′-(6-amino-5-((3-fluoropyridin-4-yl)thio)pyrazin-2-yl)-4,6-dihydrospiro[cyclopenta [d]thiazole-5,4′-piperidin]-4-amine], the IC50 in experiment [2] was 36 nM.

In the case of `COc1nccc(Sc2cnc(N3CCC4(CC3)Cc3ncccc3[C@H]4N)cn2)c1Cl` [Example 99, (S)-1′-(5-((3-chloro-2-methoxy-pyridin-4-yl)thio)pyrazin-2-yl)-5,7-dihydrospiro [cyclopenta[b]pyridine-6,4′-piperidin]-5-amine], in experiment [3], the IC50 worked out at 18 nM. Further, in experiment [1], the inhibition at 0.1 µM stood at 89%.

Consider `COc1nccc(Sc2ncc(N3CCC4(CC3)Cc3ncccc3[C@H]4N)nc2N)c1Cl` [Example 100, (S)-1′-(6-amino-5-((3-chloro-2-methoxypyridin-4-yl)thio)pyrazin-2-yl)-5,7-dihydro-spiro[cyclopenta [b]pyridine-6,4′-piperidin]-5-amine], for which, in experiment [3], the IC50 is 30 nM. The inhibition at 0.1 µM in experiment [1] is 88%.

On to `N[C@@H]1c2cccnc2CC12CCN(c1cnc(Sc3ccnc(Cl)c3Cl)cn1)CC2` [Example 104, (S)-1′-(5-((2,3-dichloropyridin-4-yl)thio)pyrazin-2-yl)-5,7-dihydrospiro [cyclopenta [b]pyridine-6,4′-piperidin]-5-amine], for which, in experiment [3], the IC50 was 9 nM. In addition, in experiment [1], the inhibition at 0.1 µM was 87%.

For `Nc1cc(Sc2cnc(N3CCC4(CC3)Cc3ncccc3[C@H]4N)cn2)c(Cl)cn1` [Example 112, (S)-1′-(5-((2-amino-5-chloro-pyridin-4-yl)thio)pyrazin-2-yl)-5,7-dihydrospiro [cyclopenta [b]pyridine-6,4′-piperidin]-5-amine], the IC50 in experiment [3] amounted to 30 nM. Besides, in experiment [1], the inhibition at 0.1 µM was found to be 87%.

On to `Nc1nc(N2CCC3(CC2)Cc2ncccc2C3N)cnc1Sc1ccnc(N)c1Cl` (centres unmarked) [Example 121, 1′-(6-amino-5-((2-amino-3-chloropyridin-4-yl)thio)pyrazin-2-yl)-5,7-dihydrospiro [cyclopenta[b]pyridine-6,4′-piperidin]-5-amine], for which, in experiment [2], 56 nM corresponded to half-maximal inhibition (IC50).

As to `Nc1nc(N2CCC3(CC2)Cc2ccc(O)cc2[C@H]3N)cnc1Sc1ccnc(N)c1Cl` [Example 137, (S)-1-amino-1′-(6-amino-5-((2-amino-3-chloropyridin-4-yl)thio)pyrazin-2-yl)-1,3-dihydrospiro[indene-2,4′-piperidin]-6-ol], in experiment [3], the IC50 was found to be 3.3 nM. Besides, the inhibition at 0.1 µM in experiment [1] worked out at 89%.

With `N=C1c2cscc2CC12CCN(c1cnc(Sc3ccnc(N)c3Cl)c(N)n1)CC2` [Example 146, 3-((2-amino-3-chloropyridin-4-yl)thio)-6-(4-imino-4H,6H-spiro [cyclopenta[c]thiophene-5,4′-piperidin]-1′-yl)pyrazin-2-amine], the inhibition at 0.1 µM in experiment [1] was 82%. For the same compound, the IC50 in experiment [2] was 12 nM.

`Nc1nccc(Sc2cnc(N3CCC4(CC3)Cc3scnc3[C@H]4N)cn2)c1Cl` [Example 152, (S)-1′-(5-((2-amino-3-chloropyridin-4-yl)thio)pyrazin-2-yl)-4,6-dihydrospiro[cyclopenta[d]thiazole-5,4′-piperidin]-4-amine]: the IC50 in experiment [2] came to 3 nM.

Compound `Nc1nc(N2CCC3(CC2)Cc2ncsc2[C@H]3N)cnc1Sc1ccnc(N)c1Cl` [Example 155, (S)-1′-(6-amino-5-((2-amino-3-chloropyridin-4-yl)thio)pyrazin-2-yl)-4,6-dihydrospiro[cyclopenta[d]thiazole-5,4′-piperidin]-6-amine] came in with an IC50 in experiment [2] of 3 nM.

In the case of `Nc1nccc(Sc2cnc(N3CCC4(CC3)Cc3ncsc3[C@H]4N)cn2)c1Cl` [Example 156, (S)-1′-(5-((2-amino-3-chloropyridin-4-yl)thio)pyrazin-2-yl)-4,6-dihydrospiro[cyclopenta[d]thiazole-5,4′-piperidin]-6-amine], the IC50 in experiment [3] worked out at 46.1 nM. Besides, the inhibition at 0.1 µM in experiment [1] was found to be 80%.

The values are drawn from patent publication US10988466B2, “Heterocyclic derivatives useful as SHP2 inhibitors” (Jacobio Pharmaceuticals Co., Ltd., priority 2017, dated 2021).
